From patent US20100099687A1, “TADALAFIL SOLID COMPOSITES” (Teva Pharmaceutical Industries Ltd., priority 2006, published 2010)

Legend:
[1] = Dissolution profile, USP Apparatus 2 (Paddles), conditions of Table 1; format: physicochemical; conditions: sample containing 20 mg tadalafil, 1000 mL aqueous 0.15 wt % sodium lauryl sulfate and 6 g/L NaH2PO4, pH about 4.5, 37° C., 50 RPM, FIG. 2
Procedure: Dissolution profiles described herein were determined in a dissolution vessel using a USP Apparatus 2 (Paddles) under the conditions described in Table 1. Samples were analyzed on-line by a UV detector.
A sample of the dry powder P-00464, containing 20 mg tadalafil was collected and its dissolution profile determined according to the conditions in Table 1. The dissolution profile of P00464 was compared with the dissolution profiles of commercial versions of tadalafil tablets (Clalis® 20 mg) and active drug substance with a particle size distribution (PSD) such that the value of d(0.9)=˜(about) 50 μm. The results of dissolution testing are illustrated in FIG. 1.
Samples of P-00464 from Example 1 and samples of tadalafil active material with PSD of d(0.9)=˜(about) 4 μm (designated TAPI AK-2186) were prepared for dissolution testing as described below. The dissolution profiles of the samples were determined according to the conditions in Table 1. The samples were analyzed on-line by UV detection, and were compared. FIG. 2 illustrates the averages of the samples for each drug. […]

[2] = organic solvents such as methanol, ethanol, and acetone; 'is understood to be'; cited from earlier work
[3] = cited from earlier work

tadalafil dissolved within 40 minutes [1] | Compound | solubility in some organic solvents [2] | water solubility ([3]; 25° C., reported by U.S. Pat. No. 6,841,167) | solubility in water ([3]; 'is understood to be')
less than 70 wt % | CN1CC(=O)N2[C@H](c3ccc4c(c3)OCO4)c3[nH]c4ccccc4c3C[C@@H]2C1=O |  |  | 
 | CN1CC(=O)N2[C@H](c3ccc4c(c3)OCO4)c3[nH]c4ccccc4c3C[C@@H]2C1=O [tadalafil, (6R-trans)-6-(1,3-benzodioxol-5-yl)-2,3,6,7,12,12a-hexahydro-2-methyl-pyrazino[1′,2′:1,6]pyrido[3,4-]indole-1,4-dione] | only very slightly soluble | about 2 μg per milliliter | practically insoluble
